Results taken from ChEMBL document CHEMBL1121497, “Studies on cardiovascular agents. 6. Synthesis and coronary vasodilating and antihypertensive activities of 1,2,4-triazolo[1,5-a]pyrimidines fused to heterocyclic systems” (1980).

Experiments:
Cavia porcellus [1] = species on record: Cavia porcellus; assay: Integrated vasodilating potency is the product of compound-induced maximum percent decrease in the perfusion pressure and the duration of the effect in minutes at 100 ug (ia); format: functional
Rattus norvegicus = assay: Hypotensive index (HI) measured as the area under the time-hypotensive response curve for 6-h period at 30 mg/kg, po; format: functional
Cavia porcellus [2] = species on record: Cavia porcellus; assay: Integrated vasodilating potency (the product of compound-induced maximum percent decrease in the perfusion pressure and the duration of the effect in minutes at 100 ug (ia); Coronary vasoconstricting action); format: functional
Canis familiaris [3] = assay: Time taken for increase in coronary blood flow in anesthetized dogs after intravenous administration at 0.1 mg/kg; format: functional, Canis lupus familiaris, Blood/Heart
Canis familiaris [4] = assay: Time taken for increase in coronary blood flow in anesthetized dogs after intravenous administration at 0.3 mg/kg; format: functional, Canis lupus familiaris, Blood/Heart
Canis familiaris [5] = assay: Time taken for increase in coronary blood flow in anesthetized dogs after intravenous administration at 1 mg/kg; format: functional, Canis lupus familiaris, Blood/Heart
Canis familiaris [6] = assay: Percent increase in coronary blood flow in anesthetized dogs after intravenous administration at 0.3 mg/kg; format: functional, Canis lupus familiaris, Artery
Canis familiaris [7] = assay: Percent increase in coronary blood flow in anesthetized dogs after intravenous administration at 1 mg/kg (p<0.05); format: functional, Canis lupus familiaris, Artery
Canis familiaris [8] = assay: Percent increase in coronary blood flow in anesthetized dogs after intravenous administration at 0.1 mg/kg; format: functional, Canis lupus familiaris, Artery
Canis familiaris [9] = assay: Increase in coronary blood flow in anesthetized dogs was measured relative to trapidil (1 mg/kg) after intravenous administration of 0.1 mg/kg; format: functional, Canis lupus familiaris, Artery
Canis familiaris [10] = assay: Increase in coronary blood flow in anesthetized dogs was measured relative to trapidil (1 mg/kg) after intravenous administration of 0.3 mg/kg; format: functional, Canis lupus familiaris, Artery
Canis familiaris [11] = assay: Increase in coronary blood flow in anesthetized dogs was measured relative to trapidil (1 mg/kg) after intravenous administration of 1 mg/kg; format: functional, Canis lupus familiaris, Artery
Canis familiaris [12] = assay: Maximum percent decrease in mean blood pressure in anesthetized dogs after intravenous administration at 0.3 mg/kg; format: functional, Canis lupus familiaris
Canis familiaris [13] = assay: Maximum percent decrease in mean blood pressure in anesthetized dogs after intravenous administration at 1 mg/kg; format: functional, Canis lupus familiaris
Cavia porcellus [14] = species on record: Cavia porcellus; assay: Integrated vasodilating potency (IVP) (the product of compound-induced maximum percent decrease in the perfusion pressure and the duration of the effect in minutes at 100 ug (ia)); format: functional
Canis familiaris [15] = assay: Maximum percent decrease in mean blood pressure in anesthetized dogs after intravenous administration at 0.1 mg/kg; format: functional, Canis lupus familiaris

SMILES | HI (Rattus norvegicus) | IVP (Cavia porcellus [2]) | further results
CCCCCCCN1CCc2c(C)nc3ncnn3c21 | 30 |  | IVP (Cavia porcellus [1]): 184
Cc1nc2ncnn2c2c1CCCN2Cc1ccccc1F | 0 | Coronary vasoconstricting action | 
Cc1nc2ncnn2c2c1CCCN2Cc1ccccc1Cl | 10 | Coronary vasoconstricting action | 
Cc1nc2nc(-c3ccc(Cl)cc3)nn2c2c1CCN2C(C)(C)C | 10 | Coronary vasoconstricting action | 
Cc1nc2nc(-c3ccc(Cl)cc3)nn2c2c1CCN2CCCN1CCCC1 | 0 | Coronary vasoconstricting action | 
Cc1nc2ncnn2c2c1CCN2C(C)(C)C [BUMEPIDIL] | 181 |  | Duration (Canis familiaris [3]): 4.3 min; Duration (Canis familiaris [4]): 9.3 min; Duration (Canis familiaris [5]): 10.6 min; Max (Canis familiaris [6]): 132.3%; Max (Canis familiaris [7]): 219.8%; Max (Canis familiaris [8]): 34.7%; Relative potency (Canis familiaris [9]): 0.7; Relative potency (Canis familiaris [10]): 3.8; Relative potency (Canis familiaris [11]): 8.4; Decrease (Canis familiaris [12]): -11.7%; Decrease (Canis familiaris [13]): -32.3%; IVP (Cavia porcellus [14]): 815; Decrease (Canis familiaris [15]): -3.3%
COc1cc(-c2nc3nc(C)c4c(n3n2)N(Cc2ccccc2Cl)CC4)cc(OC)c1OC | 0 | Coronary vasoconstricting action | 
COc1ccc(-c2nc3nc(C)c4c(n3n2)N(C(C)(C)C)CC4)cc1 | 13 | Coronary vasoconstricting action | 
